Test results as given in BindingDB's records for doi:10.1080/14756360290019944 (University of Porto-Rua Anibal Cunha, 2002).

Molecular target: Xanthine dehydrogenase/oxidase (Homo sapiens, UniProt P47989)
Experiment: Inhibition Assay
Details: pH 7.8; 25 °C
Procedure: The effect of 2-styrylchromone 1-3 on xanthine oxidase activity was evaluated by measuring the formation of uric acid from xanthine in a double beam spectrophotometer (Shimadzu 2600) at room temperature.

Sequence of Xanthine dehydrogenase/oxidase (P47989 whole entry): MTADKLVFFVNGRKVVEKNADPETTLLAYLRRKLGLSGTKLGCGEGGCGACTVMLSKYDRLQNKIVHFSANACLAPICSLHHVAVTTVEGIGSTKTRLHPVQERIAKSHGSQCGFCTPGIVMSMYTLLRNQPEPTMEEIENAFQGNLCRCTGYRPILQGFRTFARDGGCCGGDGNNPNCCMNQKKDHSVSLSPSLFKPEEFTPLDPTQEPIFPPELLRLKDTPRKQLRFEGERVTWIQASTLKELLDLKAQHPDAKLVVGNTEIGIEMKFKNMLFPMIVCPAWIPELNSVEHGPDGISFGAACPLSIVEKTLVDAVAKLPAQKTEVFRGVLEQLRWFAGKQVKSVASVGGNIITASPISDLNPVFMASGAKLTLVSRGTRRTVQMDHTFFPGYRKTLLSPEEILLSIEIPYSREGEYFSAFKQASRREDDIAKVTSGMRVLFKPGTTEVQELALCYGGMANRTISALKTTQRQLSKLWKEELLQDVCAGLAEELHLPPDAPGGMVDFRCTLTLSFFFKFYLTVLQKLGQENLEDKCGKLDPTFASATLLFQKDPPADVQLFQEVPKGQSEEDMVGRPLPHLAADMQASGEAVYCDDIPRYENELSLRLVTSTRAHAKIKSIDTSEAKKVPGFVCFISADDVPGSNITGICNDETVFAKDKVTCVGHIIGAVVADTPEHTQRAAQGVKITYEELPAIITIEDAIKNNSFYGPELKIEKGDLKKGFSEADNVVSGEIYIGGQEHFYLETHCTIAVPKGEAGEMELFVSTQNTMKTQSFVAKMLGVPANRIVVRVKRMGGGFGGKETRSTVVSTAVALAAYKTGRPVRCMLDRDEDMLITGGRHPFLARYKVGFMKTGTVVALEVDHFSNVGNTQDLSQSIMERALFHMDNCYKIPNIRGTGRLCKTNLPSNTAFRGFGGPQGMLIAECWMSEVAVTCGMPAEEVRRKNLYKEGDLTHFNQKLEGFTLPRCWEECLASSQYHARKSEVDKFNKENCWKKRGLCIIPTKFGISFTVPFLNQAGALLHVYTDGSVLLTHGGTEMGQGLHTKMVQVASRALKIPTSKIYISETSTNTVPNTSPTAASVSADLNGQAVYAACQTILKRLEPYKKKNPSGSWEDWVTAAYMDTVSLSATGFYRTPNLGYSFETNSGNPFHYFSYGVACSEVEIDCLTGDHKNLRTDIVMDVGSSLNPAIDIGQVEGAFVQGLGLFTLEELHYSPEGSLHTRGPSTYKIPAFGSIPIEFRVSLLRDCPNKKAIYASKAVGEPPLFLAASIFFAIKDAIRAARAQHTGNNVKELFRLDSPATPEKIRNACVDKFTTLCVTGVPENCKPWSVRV

SMILES	IC50 [µM]
O=c1cc(/C=C/c2ccc(O)cc2)oc2cc(O)ccc12 [2-Styrylchromone derivate, 2b]	19.6
O=c1cccc2oc(C=Cc3ccc(O)cc3)cc(O)c1-2 [2-Styrylchromone derivate, 2a]	77.4
O=c1cc(/C=C/c2ccccc2)oc2cc(O)ccc12 [2-Styrylchromone derivate, 1c]	17
O=c1cc(/C=C/c2ccccc2)oc2ccccc12	> 100
O=c1cccc2oc(C=Cc3ccccc3)cc(O)c1-2 [2-Styrylchromone derivate, 1b]	52.1

Compounds with a lower IC50, results first:

IC50 [µM]	SMILES
9.46	O=c1cc(C=Cc2ccc(O)cc2)oc2cc(O)cc(O)c12 [2-Styrylchromone derivate, 2c]
4.36	O=c1cccc2oc(C=Cc3ccc(O)c(O)c3)cc(O)c1-2 [2-Styrylchromone derivate, 3a]
2.52	O=c1cc(C=Cc2ccccc2)oc2cc(O)cc(O)c12 [2-Styrylchromone derivate, 1d]
2.03	O=c1cc(/C=C/c2ccc(O)c(O)c2)oc2cc(O)ccc12 [2-Styrylchromone derivate, 3b]
0.55	O=c1cc(O)cc2oc(C=Cc3ccc(O)c(O)c3)cc(O)c1-2 [2-Styrylchromone derivate, 3c]
